Consider one substance from paper PMC11574045, “A cofactor-induced repressive type of transcription factor condensation can be induced by synthetic peptides to suppress tumorigenesis” (The EMBO Journal, 2024).

Series [1] has as its system WT or TEAD4KO HGC-27 cells. As to the kind of experiment: Cut&Tag. The series is classed as cell-based, human. Conditions: GLUP 10 μg/ml (5 μM).
The test system of series [2] is HGC-27 cells. As to the kind of experiment: Live-cell imaging of FAM-GLUP cellular entry. Type of series: cell-based, human. The following applies: FAM-GLUP 10 μg/ml (5 μM), HGC-27 live cells. The protocol:
To confirm cellular entry of GLUP, we performed immunostaining of live cells treated with a fluorescein-labeled version of the peptide (FAM-GLUP). […] We then examined the potential effect of GLUP on TEAD4-mediated perturbation of DNA conformation.
(A) Representative live-cell images of HGC-27 cells treated with FAM (a fluorescent moiety)-labeled GLUP for indicated periods of time. FAM-GLUP: 10 μg/ml (5 μM). Scale bar, 10 μm. (B) Representative DAPI staining images of DNA showing its organization and appearance in the presence or absence of TEAD4 and GLUP as indicated. GLUP: 1 μg/ml (0.5 μM). Scale bar, 100 nm. (C) Representative N-SIM images of chromatin in GLUP-treated cells stained with DAPI. GLUP, 1 μg/ml (0.5 μM). Scale bar, 100 nm. (D) Representative images showing co-localization of GFP-TEAD4 with H3K27me3 in HEK293FT cells treated with GLUP together with 1,6-Hex. Scale bar, 1 μm. (E) Average enrichment profiles of H3K27me3 in GLUP-treated WT or TEAD4KO HGC-27 cells, stratified by gene length (three biological replicates, n = 3). Normalization of coverage using RPKM was performed over the genes and flanking region 1 kb in length. GLUP: 10 μg/ml (5 μM). […] The interval scale was 10 in both cases. See also Appendix Fig. S6. Source data are available online for this figure.

The next series has as its system MKN-45 cells. The series is classed as cell-based, human. Conditions: 48 h. The protocol:
(§1) For cell viability assays, cells were seeded into 96-well plates overnight to attach them to the plates, and then treated with GLUP for 48 h. Cells incubated for indicated periods of time were analyzed using an ATP-based CellTiter-Lumi^TM Plus kit (Beyotime) according to the manufacturer’s instructions. The intracellular ATP contents were measured using a BioTek Synergy^TM NEO multi-detector microplate reader (Thermo). Cell viability was calculated using the equation cell viability (%) = [[value (test) − value (blank)] × [value (control) − value (blank)]] −1 × 100.

The subject of the next series is MKN-28 cells. Type of series: cell-based, human. The following applies: 48 h. As to the method:
as §1

The subject of another series is MGC-803 cells. Type of series: cell-based, human. Conditions: 48 h. As to the method: as §1
A further series deals with GES-1 cells. The series is classed as cell-based, human. Conditions: 48 h. As to the method: as §1
For a further series, the system named is SNU-216 cells. Type of series: cell-based, human. The following applies: 48 h. As to the method:
as §1

A further series relates to AZ-521 cells. Type of series: cell-based, human. The following applies: 48 h. The protocol:
as §1

Series [3] concerns HGC-27 cells. Nature of the series: Colony formation. The following applies: colony formation: GLUP 2 μg/ml (1 μM) every 2 days for 2 weeks. The series is classed as cell-based, human. As to the method: (A) Cell viability levels of HGC-27 cells treated with indicated concentrations (0, 5, 10, 20, 40 μg/ml) of GLUP for 48 h (three biological replicates, n = 3). Data shown as means ± SD represent the representative results from two independent experiments. (B) Colony formation of HGC-27 cells treated with GLUP every 2 days for a 2-week duration (three biological replicates, n = 3). GLUP, 2 μg/ml (1 μM). (C) Cell viability levels of the indicated cells (from 10 different lines) treated with GLUP. […] IC50 values for the treatments of these cells with GLUP (lower). […] The box plots showing the minima, maxima, center, bounds of box and whiskers and percentiles (upper quartile, median and lower quartile). Data shown as means ± SD represent the representative results from two independent experiments. Significance was tested using the unpaired t test, ***p < 0.001. (D) Cell viability of TEAD4-overexpressing AGS cells treated with GLUP for 48 h (three biological replicates, n = 3). Data shown as means ± SD represent the representative results from two independent experiments. (E) Cell viability levels of four lines of patient-derived cells (PDCs) treated with GLUP. […] The quantification graph represents the data collected from 14 cells (n = 14). […] Tumor areas were measured (right, n = 8/group) and indicated in red circles. […]

For the next series, the system named is HGC-27 xenograft tumors. Nature of the series: HGC-27 xenograft tumor formation assay. Type of series: in vivo, mouse. Details: Tumor volume, GLUP+ / Tumor volume, GLUP++: unit not given here. The source says: Mice used in this study were from SLAC Laboratory Animal (Shanghai, China), and included 4-week-old BALB/c nude mice (female) and 8-week-old C57BL/6J mice (male and female). Tumors were allowed to grow to an average size of ~60 mm^3 and then the mice were randomly allocated to groups of 5–6 animals. No blinding was used in the treatment schedules for these experiments since the different treatments were identified by different marks on the tail. Based on our previous experience, 5–6 animals per group would provide statistically significant data while keeping the number of animals used to a minimum. Tumor size was determined by taking caliper measurements of tumor length, width and depth; tumor volume was calculated as 0.5236 × length × width × depth (mm^3).
Healthy female BALB/c nude mice were maintained in pathogen-free conditions to which they were allowed to acclimate for 1 week before being used. For the tumor formation assay, tumor cells (1 × 10^6) were injected into the respective flanks of the mice. Mice in which tumors were detected with an average size of ~60 mm^3 were biweekly administered 1 or 5 mg/kg GLUP via subcutaneous injection. These mice were sacrificed after 4 weeks, and tumor volumes were then measured.

Values joined by “and” are separate entries in the source; they are usually repeats but may differ in a detail not shown here. Equal values may be shown once. Ends that are not written are not given here.

With “RRVCVHFHFSLSLR-NH2 (C-terminus assumed) [glup]”, the “H3K27me3 signals at 3 kb regions flanking TSS” value was “no such effect was detected” in series [1] (TEAD4-depleted HGC-27 cells) and “dramatically strengthened the signals of H3K27me3” in series [1] (WT HGC-27 cells). The Cellular localisation result in the series with HGC-27 cells [2] (30 min) was “in the cytoplasm but outside of the nucleus”; in the series on HGC-27 cells [2] (80 min) it was “throughout in the cell including the nucleus”. In addition, the half-maximal inhibitory concentration (IC50) in the series on MKN-45 cells was determined as 7.3 µg/mL; with MKN-28 cells, 6.7 µg/mL; with MGC-803 cells, 2.5 µg/mL; with GES-1 cells it was 13.1 µg/mL; with SNU-216 cells, 23.4 µg/mL; in the series with AZ-521 cells, 8.1 µg/mL. Further, the “Viability and colony formation” value in the series with HGC-27 cells [3] is “obvious reduction in both the viability and colony formation”. In the series on HGC-27 xenograft tumors (1 or 5 mg/kg GLUP), the “Growth of xenografted tumors” value is recorded as “inhibited growth of xenografted tumors in a dose-dependent manner”. Also, in the series on HGC-27 xenograft tumors (nude mice, 1 mg/kg GLUP s.c. biweekly, individual mice, n = 5 (source data Fig 7E), 1 mg/kg), the “Tumor volume, GLUP+” value was 0.858 and 0.629 and 0.519 and 0.753 and 0.732. In the series on HGC-27 xenograft tumors (nude mice, 5 mg/kg GLUP s.c. biweekly, individual mice, n = 5 (source data Fig 7E), 5 mg/kg), the “Tumor volume, GLUP++” value was 0.345 and 0.321 and 0.256 and 0.423 and 0.503.
